Reference: patent publication US9505709B2, “Compositions and methods relating to ionic salts of peptides” (Thetis Pharmaceuticals LLC, priority 2014, dated 2016)

Experiments:
[1] = Oral pharmacokinetics (oral gavage), plasma free EPA or free DHA; format: in vivo, Sprague-Dawley rats; conditions: rat
Description: Experiments via Oral Gavage: Oral pharmacokinetic parameters of TP-212 (Lysyl-Lysine Bis-EPA), TP-312 (Lysyl-Lysine Bis-DHA), EPA-EE, EPA FFA and DHA FFA were determined in Sprague-Dawley rats. EPA-EE is 97% pure ethyl ester form of eicosapentaenoic acid. It is the principal polyunsaturated fatty acid in Vascepa, an Omega-3 compound approved in the U.S. for the treatment of severe hypertriglyceridemia. EPA FFA is 97% pure free fatty acid form of eicosapentaenoic acid and DHA FFA is 98% pure free fatty acid DHA. EPA FFA and DHA FFA are the two principal poly-unsaturated fatty acids in Epanova, an Omega-3 compound approved in the U.S. for the treatment of severe hypertriglyceridemia. The subject drugs were administered by oral gavage as an aqueous solution in de-ionized water to 6 Sprague-Dawley rats per group (3 males and 3 females). Rats were dosed at 40 mg/kg. Blood samples were obtained from each rat by jugular vein catheter. Samples were collected at pre-dose and at 0.25, 0.5, 1, 2, 4, 8, 12 and 18 hours post dose. Blood samples were centrifuged to separate red blood cells and the resulting plasma samples were analyzed for free EPA or free DHA. Free EPA or […] extracted from rat plasma with hexane at acidic condition without hydrolysis. Detection was by MS-MS monitoring of negative ion for EPA or DHA. Calculated pharmacokinetic values are mean values from 6 rats for each study drug.
(§1) For all figures and tables, the data are adjusted as follows for comparative purposes. First, the actual plasma levels are baseline adjusted. Thus, for each study arm, the pre-dose level (time=0) is subtracted from the actual plasma levels at each time point, with negative values adjusted to zero. Second, these baseline adjusted values are further adjusted to be molar dose equivalent on a comparative basis among the study arms with respect to EPA or DHA payload (i.e., as if equal amounts of free fatty acid EPA or DHA are administered in each study arm).

[2] = Intravenous injection pharmacokinetics, plasma free EPA or free DHA; format: in vivo, Sprague-Dawley rats; conditions: rat
Description: Experiments via Intravenous Injection: TP-212 and TP-312 were administered by intravenous injection (20 mg/kg) to Sprague-Dawley rats (n=6/group—3 male and 3 female), and plasma was obtained from serial blood samples taken from each animal at scheduled times ([…]). Blood samples were centrifuged to separate red blood cells and the resulting plasma samples were analyzed for free EPA or free DHA. Free EPA or free DHA was extracted from rat plasma with hexane at acidic condition without hydrolysis. Detection was by MS-MS monitoring of negative ion for EPA or DHA. Calculated pharmacokinetic values are mean values from 6 rats for each study drug.
as §1

Balb/C mice = experiment: Ocular irritation after topical dosing to the cornea (hyperemia, squinting, discharge, lid swelling); format: in vivo; conditions: for Hyperemia: 3 μL drop in each eye four times daily for 3 days
Description: In an embodiment where the ophthalmic formulation is an aqueous formulation, it has been determined in mice that certain formulations can be administered to the surface of the eye without producing irritation that would make them unsuitable for such application. Irritation parameters of TP-211-1, TP-212-1, TP-311-1 and TP-312-1 related to hyperemia, squinting, and discharge were determined in Balb/C mice. Mice were dosed topically to the cornea using a calibrated micropipette, with a 3 μL drop of treatment in each eye four times daily for 3 consecutive days at various concentrations.
TP-211-1 is Lysyl-lysine EPA. TP-212-1 is Lysyl-lysine bis-EPA. TP-311-1 is Lysyl-lysine DHA. TP-312-1 is Lysyl-lysine bis-DHA. The study drugs were prepared using phosphate buffered saline (PBS) to reach target concentrations ranging from 0.1% to 1.0%.
The animals were monitored for scratching at the eye or any other abnormal behavior post-dose. Ocular exams were conducted on Days 1 and 3 with use of a Micron III camera system to take high resolution videos of the right eye of each animal Clinical signs including but not limited to hyperemia, discharge, lid swelling, and squinting were evaluated by trained personnel who was masked as to group assignment. Each clinical sign was graded on a scale of 0-4, with the exception of lid swelling which was graded on a scale of 0-2. Scores were averaged and are expressed as the mean±SEM for each group. Statistical significance was assessed between the treatment arms and the vehicle group. Any significance is noted by asterisks (*=p<0.05, **=p<0.01, ***=p<0.001).

[3] = Stability analysis by 1H NMR of samples exposed to air and light; conditions: ambient temperature
Description: Stability analysis was performed using 1H NMR (400 MHz) with acetic acid-d4 at various time point (typically days 1, 14, 30 and 60) using samples exposed to air and light at ambient temperature (clear vials with no caps).

[4] = oral gavage 40 mg/kg, molar dose equivalent, baseline adjusted
[5] = intravenous injection 20 mg/kg, molar dose equivalent, baseline adjusted

With `CC/C=C\C/C=C\C/C=C\C/C=C\C/C=C\CCCC(=O)O.CC/C=C\C/C=C\C/C=C\C/C=C\C/C=C\CCCC(=O)O.NCCCC[C@H](NC(=O)[C@@H](N)CCCCN)C(=O)O` [Compound 2, (L,L) Lysyl-lysine bis-EPA] the “Tmax (free EPA)” value ([1]; oral gavage 40 mg/kg) was 30 min, the “Plasma level of free EPA” value ([1]; oral gavage 40 mg/kg, 0 h (pre-dose), molar dose equivalent, baseline adjusted) was 0 ng/mL and the “Plasma level of free EPA” value ([1]; oral gavage 40 mg/kg, 0.25 h (15 min), molar dose equivalent, baseline adjusted) was 300 ng/mL. For the same compound, the “Plasma level of free EPA” value ([1]; oral gavage 40 mg/kg, 0.5 h (30 min), molar dose equivalent, baseline adjusted) was 9500 ng/mL, the “Plasma level of free EPA” value ([1]; oral gavage 40 mg/kg, 1 h (60 min), molar dose equivalent, baseline adjusted) was 3900 ng/mL and the “Plasma level of free EPA” value ([1]; oral gavage 40 mg/kg, 2 h (120 min), molar dose equivalent, baseline adjusted) was 3200 ng/mL. For the same compound, the “Plasma level of free EPA” value ([1]; oral gavage 40 mg/kg, 4 h (240 min), molar dose equivalent, baseline adjusted) was 1500 ng/mL, the “Plasma level of free EPA” value ([1]; oral gavage 40 mg/kg, 8 h, molar dose equivalent, baseline adjusted) was 600 ng/mL and the “Plasma level of free EPA” value ([1]; oral gavage 40 mg/kg, 12 h, molar dose equivalent, baseline adjusted) was 0 ng/mL. For the same compound, the “Plasma level of free EPA” value ([1]; oral gavage 40 mg/kg, 18 h, molar dose equivalent, baseline adjusted) was 0 ng/mL, the “AUC 0-1 hrs (free EPA)” value [1, 4] was 4600 ng·h/mL and the “AUC 0-4 hrs (free EPA)” value [1, 4] was 12800 ng·h/mL. The “AUC 0-18 hrs (free EPA)” value [1, 4] was 18300 ng·h/mL, the “Cmax (free EPA)” value [1, 4] was 9500 ng/mL and the “AUC over 18 hours (free EPA), times greater than EPA-EE” value ([1]; oral gavage) was “approximately 2.6 times”. For the same compound, the “AUC over 18 hours (free EPA), times greater than EPA-FFA” value ([1]; oral gavage) was roughly 1.8 times, the “Cmax (free EPA), times greater than EPA-EE” value ([1]; oral gavage) was “approximately 8.9 times” and the “Cmax (free EPA), times greater than EPA-FFA” value ([1]; oral gavage) was roughly 7.4 times. For the same compound, the “Tmax (free EPA)” value ([2]; intravenous injection 20 mg/kg) was 1 min, the “Plasma level of free EPA” value ([2]; intravenous injection 20 mg/kg, 0 min, molar dose equivalent, baseline adjusted) was 0 ng/mL and the “Plasma level of free EPA” value ([2]; intravenous injection 20 mg/kg, 1 min, molar dose equivalent, baseline adjusted) was 34500 ng/mL. The “Plasma level of free EPA” value ([2]; intravenous injection 20 mg/kg, 5 min, molar dose equivalent, baseline adjusted) was 6600 ng/mL, the “Plasma level of free EPA” value ([2]; intravenous injection 20 mg/kg, 10 min, molar dose equivalent, baseline adjusted) was 6400 ng/mL and the “Plasma level of free EPA” value ([2]; intravenous injection 20 mg/kg, 15 min, molar dose equivalent, baseline adjusted) was 11400 ng/mL. The “Plasma level of free EPA” value ([2]; intravenous injection 20 mg/kg, 30 min, molar dose equivalent, baseline adjusted) was 8800 ng/mL, the “Plasma level of free EPA” value ([2]; intravenous injection 20 mg/kg, 60 min, molar dose equivalent, baseline adjusted) was 4600 ng/mL and the “Plasma level of free EPA” value ([2]; intravenous injection 20 mg/kg, 120 min, molar dose equivalent, baseline adjusted) was 2300 ng/mL. For the same compound, the “Plasma level of free EPA” value ([2]; intravenous injection 20 mg/kg, 240 min, molar dose equivalent, baseline adjusted) was 1800 ng/mL, the “AUC 0-1 hrs (free EPA)” value [2, 5] was 8300 ng·h/mL and the “AUC 0-4 hrs (free EPA)” value [2, 5] was 15900 ng·h/mL. The “Cmax (free EPA)” value [2, 5] was 34500 ng/mL, the “AUC over 1 hour (free EPA), times greater than EPApo” value ([2]; intravenous vs oral gavage) was roughly 13.4 times and the “AUC over 1 hour (free EPA), times greater than TP-212po” value ([2]; intravenous vs oral gavage) was “approximately 1.8 times”. The “AUC over 4 hours (free EPA), times greater than EPApo” value ([2]; intravenous vs oral gavage) was roughly 5.1 times, the “AUC over 4 hours (free EPA), times greater than TP-212po” value ([2]; intravenous vs oral gavage) was “approximately 1.2 times” and the “Cmax (free EPA), times greater than EPA-FFApo” value ([2]; intravenous vs oral gavage) was roughly 27 times. The “Cmax (free EPA), times greater than TP-212po” value ([2]; intravenous vs oral gavage) was “approximately 3.6 times”, the Hyperemia (Balb/C mice; 0.5% concentration in PBS) was “increase in hyperemia (but not squinting) after the first dose” and the Squinting (Balb/C mice; 0.5% concentration in PBS, topical to cornea) was “not squinting”. The Hyperemia (Balb/C mice; 1.0% concentration in PBS) was “increase in hyperemia (but not squinting) after the first dose”, the Squinting (Balb/C mice; 1.0% concentration in PBS, topical to cornea) was “not squinting” and the “Irritation, overall conclusion” value (Balb/C mice; concentrations of less than 1.0%, topical to cornea, repeat dosing) was “may cause some initial irritation upon the very first installation, but the animals acclimated well to repeat dosing”. The “Hyperemia at last dose / final evaluation” value (Balb/C mice; concentrations that showed an initial increase or all tested, last dose / final evaluation (Day 3)) was “returned to baseline levels by the final evaluation”, the “Stability by NMR (amount of sample remaining relative to original sample)” value ([3]; Day 3) was 1 (1 = >95%) and the “Stability by NMR (amount of sample remaining relative to original sample)” value ([3]; Day 14) was 1 (1 = >95%). The “Stability by NMR (amount of sample remaining relative to original sample)” value ([3]; Day 30) was 1 (1 = >95%) and the “Stability by NMR (amount of sample remaining relative to original sample)” value ([3]; Day 60) was 1 (1 = >95%).
